Reference: patent US9682955B2, “Quinazoline derivatives useful as CB-1 inverse agonists” (Janssen Pharmaceutica NV, priority 2014, dated 2017)

Assays:
[1] = molecular target: Human CB1R (Cannabanoid receptor 1) (Homo sapiens (Human), UniProt P21554); assay: CB-1 in vitro cAMP assay (HTRF); type: cell-based; details: mean where tested more than once
Summary of the method: (§1)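 HEK-293 cells stably transfected with the human receptor, plated overnight at 4E5 cells/mL. Compounds given as 1/3 serial dilutions from 10 mM DMSO stocks. Stimulation in HBSS/5 mM HEPES/0.1% BSA with 0.5 mM IBMX and forskolin (1.5 μM in buffer); cAMP measured by competitive HTRF immunoassay (d2-cAMP, cryptate anti-cAMP) against a cAMP standard curve.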

[2] = molecular target: Human CB2R (Cannabanoid receptor 2) (Homo sapiens (Human), UniProt P34972); assay: CB-2 in vitro cAMP assay (HTRF); type: cell-based; details: mean where tested more than once
Sequence of Human CB2R (Cannabanoid receptor 2) (P34972 whole entry): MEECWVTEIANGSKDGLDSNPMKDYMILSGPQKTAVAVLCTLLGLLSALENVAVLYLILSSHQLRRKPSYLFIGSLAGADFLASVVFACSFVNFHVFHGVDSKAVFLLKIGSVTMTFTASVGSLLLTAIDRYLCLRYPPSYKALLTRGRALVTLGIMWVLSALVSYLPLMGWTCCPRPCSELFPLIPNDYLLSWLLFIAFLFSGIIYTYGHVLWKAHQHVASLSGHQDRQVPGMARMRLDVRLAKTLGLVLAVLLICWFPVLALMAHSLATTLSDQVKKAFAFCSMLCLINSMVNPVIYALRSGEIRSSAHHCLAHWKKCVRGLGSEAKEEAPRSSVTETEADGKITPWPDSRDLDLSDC
Summary of the method: as §1

Sequence of Human CB1R (Cannabanoid receptor 1) (P21554 whole entry): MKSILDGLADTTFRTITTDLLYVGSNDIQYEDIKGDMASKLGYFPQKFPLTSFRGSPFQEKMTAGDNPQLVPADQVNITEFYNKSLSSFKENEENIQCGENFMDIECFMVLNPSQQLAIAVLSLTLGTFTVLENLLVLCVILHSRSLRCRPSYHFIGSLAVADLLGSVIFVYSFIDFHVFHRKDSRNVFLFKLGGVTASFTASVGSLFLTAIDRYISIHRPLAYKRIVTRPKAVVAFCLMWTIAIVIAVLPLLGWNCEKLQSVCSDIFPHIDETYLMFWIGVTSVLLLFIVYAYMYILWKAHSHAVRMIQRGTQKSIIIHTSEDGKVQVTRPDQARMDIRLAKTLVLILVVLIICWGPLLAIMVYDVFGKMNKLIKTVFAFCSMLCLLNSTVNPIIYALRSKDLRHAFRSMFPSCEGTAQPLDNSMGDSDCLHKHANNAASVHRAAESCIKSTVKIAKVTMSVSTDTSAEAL

Row | Compound | EC50 [1] [nM] | EC50 [2] [nM]
1 | COc1nc(NC2CCN(S(=O)(=O)C(F)(F)F)CC2)c2cc(C(c3ccc(Cl)cc3)c3ccc(Cl)cc3)ccc2n1 [Compound #103, 6-(bis(4-chlorophenyl)methyl)-2-methoxy-N-(1-((trifluoromethyl)sulfonyl)piperidin-4-yl)quinazolin-4-amine] | 4 | > 10000
2 | O=S(=O)(NC1CCN(c2ncnc3ccc(C(c4ccc(Cl)cc4)c4ccc(Cl)cc4)cc23)CC1)C(F)(F)F [Compound #104, N-(1-(6-(bis(4-chlorophenyl)methyl)quinazolin-4-yl)piperidin-4-yl)-1,1,1-trifluoromethanesulfonamide] | 68 | > 10000
3 | CC(=O)Nc1nc(NC2CCN(S(=O)(=O)C(F)(F)F)CC2)c2cc(C(c3ccc(Cl)cc3)c3ccc(Cl)cc3)ccc2n1 [Compound #106, N-(6-(bis(4-chlorophenyl)methyl)-4-((1-((trifluoromethyl)sulfonyl)piperidin-4-yl)amino)quinazolin-2-yl)acetamide] | 70 | 5700
4 | Nc1nc(NC2CCN(S(=O)(=O)C(F)(F)F)CC2)c2cc(C(c3ccc(Cl)cc3)c3ccc(Cl)cc3)ccc2n1 [Compound #107, 6-(bis(4-chlorophenyl)methyl)-N4-(1-((trifluoromethyl)sulfonyl)piperidin-4-yl)quinazoline-2,4-diamine] | 75 | > 10000
5 | O=S(=O)(N1CCC(Nc2nc(C3CC3)nc3ccc(C(c4ccc(Cl)cc4)c4ccc(Cl)cc4)cc23)CC1)C(F)(F)F [Compound #108, 6-(bis(4-chlorophenyl)methyl)-2-cyclopropyl-N-(1-((trifluoromethyl)sulfonyl)piperidin-4-yl)quinazolin-4-amine] | 8 | > 10000
6 | COC(=O)CS(=O)(=O)N1CCC(Nc2ncnc3ccc(C(c4ccc(Cl)cc4)c4ccc(Cl)cc4)cc23)CC1 [Compound #110, Methyl 2-((4-((6-(bis(4-chlorophenyl)methyl)quinazolin-4-yl)amino)piperidin-1-yl)sulfonyl)acetate] | 41 | 3220
7 | CNc1nc(NC2CCN(S(=O)(=O)C(F)(F)F)CC2)c2cc(C(c3ccc(Cl)cc3)c3ccc(Cl)cc3)ccc2n1 [Compound #113, 6-(bis(4-chlorophenyl)methyl)-N2-methyl-N4-(1-((trifluoromethyl)sulfonyl)piperidin-4-yl)quinazoline-2,4-diamine] | 254 | > 10000
8 | O=S(=O)(N1CCC(Nc2nc(O)nc3ccc(C(c4ccc(Cl)cc4)c4ccc(Cl)cc4)cc23)CC1)C(F)(F)F [Compound #114, 6-(bis(4-chlorophenyl)methyl)-4-((1-((trifluoromethyl)sulfonyl)piperidin-4-yl)amino)quinazolin-2-ol] | 32 | 5690
9 | N#CC1(c2ccccc2)CCC(Nc2ncnc3ccc(C(c4ccc(Cl)cc4)c4ccc(Cl)cc4)cc23)CC1 (centres unmarked) [Compound #118, 4-((6-(bis(4-chlorophenyl)methyl)quinazolin-4-yl)amino)-1-phenylcyclohexanecarbonitrile] | 11 | 196
10 | O=S(=O)(N1CCCC1)N1CCC(Nc2ncnc3ccc(C(c4ccc(Cl)cc4)c4ccc(Cl)cc4)cc23)CC1 [Compound #120, 6-(bis(4-chlorophenyl)methyl)-N-(1-(pyrrolidin-1-ylsulfonyl)piperidin-4-yl)quinazolin-4-amine] | 4 | 2150
11 | FC(F)(F)c1ccc(Nc2ncnc3ccc(C(c4ccc(Cl)cc4)c4ccc(Cl)cc4)cc23)cc1Cl [Compound #122, 6-(bis(4-chlorophenyl)methyl)-N-(3-chloro-4-(trifluoromethyl)phenyl)quinazolin-4-amine] | 52 | > 10000
12 | FC(F)(F)CN1CCC(Nc2ncnc3ccc(C(c4ccc(Cl)cc4)c4ccc(Cl)cc4)cc23)CC1 [Compound #123, 6-(bis(4-chlorophenyl)methyl)-N-(1-(2,2,2-trifluoroethyl)piperidin-4-yl)quinazolin-4-amine] | 2 | 490
13 | Clc1ccc(C(c2ccc(Cl)cc2)c2ccc3ncnc(NC4CCN(c5ccccn5)CC4)c3c2)cc1 [Compound #130, 6-(bis(4-chlorophenyl)methyl)-N-(1-(pyridin-2-yl)piperidin-4-yl)quinazolin-4-amine] | 2 | 154
14 | CN(Cc1ccc(C(F)(F)F)cc1)c1ncnc2ccc(C(c3ccc(Cl)cc3)c3ccc(Cl)cc3)cc12 [Compound #132, 6-(bis(4-chlorophenyl)methyl)-N-methyl-N-(4-(trifluoromethyl)benzyl)quinazolin-4-amine] | 173 | > 14000
15 | O=C(CC(F)(F)F)N1CCC(Nc2ncnc3ccc(C(c4ccc(Cl)cc4)c4ccc(Cl)cc4)cc23)CC1 [Compound #133, 1-(4-((6-(bis(4-chlorophenyl)methyl)quinazolin-4-yl)amino)piperidin-1-yl)-3,3,3-trifluoropropan-1-one] | 7 | 2210
16 | O=S(=O)(c1ccc(Nc2ncnc3ccc(C(c4ccc(Cl)cc4)c4ccc(Cl)cc4)cc23)cc1)C(F)(F)F [Compound #134, 6-(bis(4-chlorophenyl)methyl)-N-(4-((trifluoromethyl)sulfonyl)phenyl)quinazolin-4-amine] | 194 | > 10000

Row | Compound | EC50 [1] [nM] | EC50 [2] [nM]
17 | FC(F)(F)c1cccc(CNc2ncnc3ccc(C(c4ccc(Cl)cc4)c4ccc(Cl)cc4)cc23)c1 [Compound #136, 6-(bis(4-chlorophenyl)methyl)-N-(3-(trifluoromethyl)benzyl)quinazolin-4-amine] | 3 | > 10000
18 | Clc1ccc(C(c2ccc(Cl)cc2)c2ccc3ncnc(NC4CCN(c5ccccc5)CC4)c3c2)cc1 [Compound #137, 6-(bis(4-chlorophenyl)methyl)-N-(1-phenylpiperidin-4-yl)quinazolin-4-amine] | 2 | 280
19 | Clc1ccc(C(c2ccc(Cl)cc2)c2ccc3ncnc(NC4CCN(c5ncccn5)CC4)c3c2)cc1 [Compound #139, 6-(bis(4-chlorophenyl)methyl)-N-(1-(pyrimidin-2-yl)piperidin-4-yl)quinazolin-4-amine] | 2 | 771
20 | O=S(=O)(c1ccc(Nc2ncnc3ccc(C(c4ccc(Cl)cc4)c4nccs4)cc23)cc1)C(F)(F)F (centres unmarked) [Compound #142, 6-((4-chlorophenyl)(thiazol-2-yl)methyl)-N-(4-((trifluoromethyl)sulfonyl)phenyl)quinazolin-4-amine] | 574 | > 10000
21 | FC(F)(F)c1ccc(Nc2ncnc3ccc(C(c4ccc(Cl)cc4)c4ccc(Cl)cc4)cc23)cc1 [Compound #143, 6-(bis(4-chlorophenyl)methyl)-N-(4-(trifluoromethyl)phenyl)quinazolin-4-amine] | 91 | > 10000
22 | FC(F)(F)c1ccc(Nc2ncnc3ccc(C(c4ccc(Cl)cc4)c4nccs4)cc23)cc1 (centres unmarked) [Compound #144, 6-((4-chlorophenyl)(thiazol-2-yl)methyl)-N-(4-(trifluoromethyl)phenyl)quinazolin-4-amine] | 163 | 2750
23 | O=S(=O)(N1CCC(Nc2ncnc3ccc(C(c4ccc(Cl)cc4)c4ccc(Cl)cc4)cc23)CC1)C(F)(F)F [Compound #145, 6-(bis(4-chlorophenyl)methyl)-N-(1-((trifluoromethyl)sulfonyl)piperidin-4-yl)quinazolin-4-amine] | 5 | 801
24 | O=S(=O)(N1CCC(Nc2ncnc3ccc(C(c4ccc(Cl)cc4)c4nccs4)cc23)CC1)C(F)(F)F (centres unmarked) [Compound #146, 6-((4-chlorophenyl)(thiazol-2-yl)methyl)-N-(1-((trifluoromethyl)sulfonyl)piperidin-4-yl)quinazolin-4-amine] | 8 | 978
25 | O=C(O)c1cccc(CN2CCC(Nc3ncnc4ccc(C(c5ccc(Cl)cc5)c5ccc(Cl)cc5)cc34)C2)c1 (centres unmarked) [compound 17, 3-((3-(6-(bis(4-chlorophenyl)methyl)quinazolin-4-ylamino)pyrrolidin-1-yl)methyl)benzoic acid] | 4000 | 7640
26 | O=C(O)c1ccccc1CN1CCC(Nc2ncnc3ccc(C(c4ccc(Cl)cc4)c4ccc(Cl)cc4)cc23)CC1 [compound 21, 2-((4-(6-(bis(4-chlorophenyl)methyl)quinazolin-4-ylamino)piperidin-1-yl)methyl)benzoic acid] | 4820 | 4710
27 | Oc1ccc(CN2CCC(Nc3ncnc4ccc(C(c5ccc(Cl)cc5)c5ccc(Cl)cc5)cc34)CC2)cc1 [compound 27, 4-((4-(6-(bis(4-chlorophenyl)methyl)quinazolin-4-ylamino)piperidin-1-yl)methyl)phenol] | 120 | > 10000
28 | O=C(O)c1ccc(CN2CCC(Nc3ncnc4ccc(C(c5ccc(Cl)cc5)c5ccc(Cl)cc5)cc34)CC2)s1 [compound 34, 5-((4-(6-(bis(4-chlorophenyl)methyl)quinazolin-4-ylamino)piperidin-1-yl)methyl)thiophene-2-carboxylic acid] | 176 | > 10000
29 | NC(=O)c1ccc(CN2CCC(Nc3ncnc4ccc(C(c5ccc(Cl)cc5)c5ccc(Cl)cc5)cc34)CC2)cc1 [compound 38, 4-((4-(6-(bis(4-chlorophenyl)methyl)quinazolin-4-ylamino)piperidin-1-yl)methyl)benzamide] | 191 | 3570
30 | O=C(NC(CO)(CO)CO)c1ccc(N2CCC(Nc3ncnc4ccc(C(c5ccc(Cl)cc5)c5ccc(Cl)cc5)cc34)CC2)cc1 [compound 42] | 180 | 216
31 | O=C(O)c1ccc(CN2CCC(Nc3ncnc4ccc(C(c5ccc(Cl)cc5)c5ccc(Cl)cc5)cc34)CC2)cc1 [compound 44, 4-((4-(6-(bis(4-chlorophenyl)methyl)quinazolin-4-ylamino)piperidin-1-yl)methyl)benzoic acid] | 580 | > 10000
